# Read-outs that look alike come from different tables or passages of the source.
# Legend:
# L1210 leukemia cells = assay: Inhibition of proliferation of L1210 leukemia cells (trypan blue count of surviving cells after 4 days); format: cell-based; conditions: RPMI medium with 10% FCS, 37°C, ratio of proliferation against 0.1% ethanol control
# Experimental: Measurement of the action of inhibiting proliferation of […] leukemia cell:-
# L1210 leukemia cells were added to an RPMI medium containing 10% FCS (fetal calf serum), and the concentration of the cells was adjusted to 1 × 10^5 cells/ml. […] Prior to use, the final concentration of the ethanol solution was adjusted to less than 0.1%, and it was added to the culture medium. The culture medium was then maintained at 37°C in a stationary condition for 4 days. After the cultivation, the number of surviving cells was measured by dyeing with trypan flue. As a control, 0.1% ethanol was used. A dose-reaction curve was plotted from the ratios of proliferation against the control, and IC50 was determined.
# ethanol ulcer = assay: Ethanol ulcer test (inhibitory activity on ethanol ulcer); format: in vivo, SD-strain rats; conditions: rats; for Ulcer index (mm): 75% ethanol 30 min later, stomach examined 1 h later; for ED50: p.o., ethanol ulcer
# Experimental: Measurement of inhibitry activity on ethanol ulcer:- An ethanol ulcer test was carried out by the following processure. SD-strain rats (body weight 200 to 220 g; 7 weeks old) were fasted for 24 hours, and a solution of each of the test compounds in physiological saline buffered with phosphate buffer at pH 7.5 was orally administered. Thirty minutes after the administration, 75% ethanol was orally administered in a dose of […]. One hour later, the abdomen was incised to isolate the stomach. […] The total of these lengths was defined as the ulcer index. A control group was given physiological saline buffered with phosphate buffer (pH 7.5) and 75% ethanol.
# blood pressure = assay: Hypotensive activity by intravenous injection under anesthesia; format: in vivo, Male wister rats; conditions: anesthetized rats, i.v.; dosage which caused a 20% lowering of the mean blood pressure
# Experimental: Measurement of the hypotensive activity:-
# The actions of the 5-thiaprostaglandin of the invention on the blood pressure was examined by intravenous injection under anesthesia.
# Male wister rats weighing about 250 g were used. Urethane (500 mg/kg) and a-chloralose (100 mg/kg) were intraperitoneally administered to the rats. The rats were anesthetized and fixed in place.
# Each of the test compounds was dissolved in a small amount of ethanol and diluted with physiological saline to adjust the final ethanol concentration to not more than 5%. The solution was intravenously injected into the rats through a catheter inserted into the femoral vein.
# The blood pressure of the rats was measured by a pressure transducer through a catheter inserted into the carotid artery of the rats.
# The action of the test compound on the blood pressure was expressed as the dosage (ED20, u/kg) of the test compound which caused a 20% lowering of the mean blood pressure before administration of the compound.
# platelet aggregation = assay: In vitro inhibition of ADP-induced platelet aggregation in platelet-rich plasma (aggregometer); format: cell-based, Japanese domestic white male rabbits
# Experimental: in vitro inhibitory activity of platelet aggregation:-
# The in vitro platelet aggregation imhibiting activity of the compounds of the invention were examined by using rabbits. Blood was withdrawn from the ear vein of Japanese domestic white male rabbits weighing 2.5 to 3.5 kg. A mixture of a 3.8% trisodium citrate solution and the blood in a ratio of 1:9 was centrifuged at a speed of 1000 rpm for 10 minutes. The upper layer was separated as platelet- rich plasma (PRP). The lower layer was further centrifuged at a speed of 28000 rpm for 10 minutes. The upper layer was separated as platelet-poor plasma (PPP). The number of platelets was adjusted to 6 x 10^5/µℓ to 7 x 10^5/µℓ by diluting the PRP with PPP. 25 microliters of the test compounds prepared as shown below was added in an amount of 25 to 250 microliters of PRP after the adjustment, and the mixture was pre-incubated at 37°C for 2 minutes, and then 10 µM (final) of ADP was added. By using an aggregometer, changes in transmission were recorded.
# The drug was dissolved in ethanol to a concentration of 10 mg/mt, and successively diluted with phosphate buffer (pH 7.4) prior to use.
# The rate of inhibition of platelet aggregation was determined from the following equation. [formula] • T: the transmittance of the system containing the phosphate buffer, • T : the transmittance of the system to which the test drug was added.
# The minumum concentration of the drug which inhibited more than 50% of platelet aggregation was shown as an IC50 value.
compound,measurement,setting,value
5-thiaprostaglandin E1 methyl ester,IC50,L1210 leukemia cells,0.6 µg/mL
"17(S),20-dimethyl-5-thiaprostaglandin E1 methyl ester",Ulcer inhibiting rate (%),ethanol ulcer; p.o. 0.3 µg/kg,46.8%
same,Ulcer index (mm),ethanol ulcer; p.o. 0.3 µg/kg,18.4 ±4.3 mm
same,Ulcer inhibiting rate (%),ethanol ulcer; p.o. 1 µg/kg,97.7%
same,Ulcer index (mm),ethanol ulcer; p.o. 1 µg/kg,0.8 ±0.6 mm
same,Ulcer inhibiting rate (%),ethanol ulcer; p.o. 3 µg/kg,100%
same,Ulcer index (mm),ethanol ulcer; p.o. 3 µg/kg,0 mm
same,ED50,ethanol ulcer,0.35 µg/kg
same,ED20,blood pressure,2.7 µg/kg
same,IC50,"platelet aggregation; rabbit PRP, 10 µM (final) ADP, minimum concentration which inhibited more than 50% of platelet aggregation",0.33 µg/mL
CCCCCC(O)C=CC1C=CC(=O)C1=CCSCCCC(=O)OC (centres unmarked) [12-epimer of (7E)-Δ^7-5-thiaprostaglandin A1 methyl ester],IC50,L1210 leukemia cells,0.3 µg/mL
"CCCC[C@@H](C)C[C@H](O)/C=C/[C@H]1[C@H](O)CC(=O)[C@@H]1CCSCCCC(=O)OC [17(R),20-dimethyl-5-thiaprostaglandin E1 methyl ester]",IC50,"platelet aggregation; Oryctolagus cuniculus, rabbit PRP, 10 µM (final) ADP, minimum concentration which inhibited more than 50% of platelet aggregation, read-out: IC50",0.36 µg/mL
CCCCC[C@H](O)/C=C/[C@H]1C=CC(=O)/C1=C/CSCCCC(=O)OC [(7E)-Δ^7-5-thiaprostaglandin A1 methyl ester],IC50,"L1210 leukemia cells; Mus musculus, 96 h, read-out: IC50",0.2 µg/mL
"CCCCC[C@H](O)/C=C/[C@H]1[C@H](O)CC(=O)[C@@H]1CCCCCCC(=O)O [Prostaglandin E1, reference compound]",inhibition at 0.003 mg/kg,"ethanol ulcer; Rattus norvegicus, po, p.o. 3 µg/kg, read-out: Ulcer inhibiting rate (%)",50%
same,inhibition at 0.01 mg/kg,"ethanol ulcer; Rattus norvegicus, po, p.o. 10 µg/kg, read-out: Ulcer inhibiting rate (%)",96.2%
same,ED50,"ethanol ulcer; Rattus norvegicus, po, read-out: ED50",3 µg/kg
same,Ulcer index (mm),ethanol ulcer; p.o. 3 µg/kg,17.1 ±5.5 mm
same,Ulcer index (mm),ethanol ulcer; p.o. 10 µg/kg,1.3 ±0.8 mm
same,IC50,"platelet aggregation; Oryctolagus cuniculus, Platelet, in vitro, ADP 10 µM (printed ""ADPlOpM""), read-out: inhibiting platelet aggregation activity (IC50)",0.03 µg/mL
(7E)-Δ^7-5-thiaprostaglandin E1 methyl ester and its 15-epimer [A mixture of (7E)-Δ^7-5-thiaprostaglandin E1 methyl ester of its 15-epimer],IC50,L1210 leukemia cells,0.4 µg/mL

# Reference: patent EP0112633A2, “Novel 5-thiaprostaglandin, process for production thereof, and pharmaceutical use thereof” (TEIJIN LIMITED, priority 1982, dated 1984)
